# Measurements reported in patent US20240415809A1, “PHARMACEUTICAL COMBINATIONS” (ZYDUS LIFESCIENCES LIMITED, priority 2021, published 2024).
# Columns and labels:
# Assay type in all cases: in vivo
# [1] = system: DSS induced ulcerative colitis in C57 mice; experiment: Apremilast and Rifaximin alone and in combination in DSS induced ulcerative colitis in C57 mice (Example 7); details: for % change in DAI vs DSS vehicle control / % change in bleeding score vs DSS vehicle control / The rectal bleeding score, Day-6 / The disease activity index (DAI) score, Day-6: Day-6, Rifaximin 19 mg/kg p.o., Apremilast 12.5 mg/kg p.o., alone or combined, once a day for six days; for The disease activity index (DAI) score, Day-6: 2.5% DSS; for improvement in disease activity index (DAI) score: Example 7, Apremilast human equivalent mice dose, low dose of Rifaximin
# Source text: (§1) In this study, we have used human equivalent mice dose of Apremilast and very ( 1/18th-fold) low dose of Rifaximin in animal model, which is DSS (Dextran sulfate sodium) induced ulcerative colitis in C57 mice (Br J Pharmacol. 2019 July; 176 (13): 2209-2226. doi: 10.1111/bph.14667. Epub 2019 May 17). The colitis induced by DSS, presents good reproducibility and also mimics clinical symptoms, inflammatory markers and histopathological features which is similar to IBD in humans (Cell Mol Gastroenterol Hepatol. 2015 Mar. 1; 1 (2): 154-170. doi: 10.1016/j.jcmgh.2015.01.006., Arq Gastroenterol. 2014 April-June; 51 (2): 107-12. doi: 10.1590/s0004-28032014000200007. PMID: 25003261).
# (§2) C57 mice of 10-12 weeks age were used for this study. On the day of study initiation (day-0) animals were randomized based on their body weight in to different treatment groups as below:
# (§3) On day-0 animals were randomized based on body weight and from the same day onwards animals were administered with 2.5% DSS in RO water along with the test compounds till day-6.
# (§4) The test compounds were formulated in Tween 80 and 0.5% Na. CMC in (0.5:99.50%) ratio and oral administration was done once a day for six days. During the duration of the experiment, a disease activity index (DAI) score was assessed to evaluate the clinical progression of ulcerative colitis. The DAI was calculated by grading on a scale of 0-5 using the following parameters: loss of body weight (0=normal; 1=0-5%; 2=6-10%; 3=11-15%; 4=16-20%, 5=>20%), stool consistency (0=normal; 1=soft stools; 2=loose stools; 3=watery diarrhea) and rectal bleeding (0=none; 2=presence of hemoccult; 4=severe bleeding). (Ref: Cytokine 2014, 66, 30-39).
# (§5) On the day of termination (Day-6), DAI score was assessed followed by nonfasted blood collection. Then animals were sacrificed and relevant tissues were collected in 10% formalin for histological analysis or snap frozen in liquid nitrogen for other assays.
# (§6) With the help of MS Excel, percent change vs disease control (DSS vehicle control) in various parameters were calculated and statistical analysis was performed using graph pad prism software.
# [2] = system: DSS induced ulcerative colitis in C57 mice; experiment: Apremilast and Rifaximin alone and as fixed dose combination (FDC) in DSS induced ulcerative colitis in C57 mice (Example 8); details: for % change in DAI vs DSS vehicle control / % change in bleeding score vs DSS vehicle control / The rectal bleeding score, Day-6 / The disease activity index (DAI) score, Day-6: Day-6, Rifaximin 102.8 mg/kg p.o. BID, Apremilast 2.1 mg/kg p.o. BID, alone or combined; for The disease activity index (DAI) score, Day-6: six days, 2.5% DSS; for improvement in disease activity index (DAI) score / improvement in rectal bleeding: Example 8, Apremilast equivalent to 10 mg, Rifaximin equivalent to 500 mg human dose
# Protocol: In this study, we have used Apremilast which is equivalent to 10 mg of human dose and Rifaximin which is equivalent to 500 mg of human dose in animal model, which is DSS (Dextran sulfate sodium) induced ulcerative colitis in C57 mice (Br J Pharmacol. 2019 July; 176 (13): 2209-2226. doi: 10.1111/bph.14667. Epub 2019 May 17). The colitis induced by
# C57 mice of 9-10 weeks age were used for this study. On the day of study initiation (day-0) animals were randomized based on their body weight in to different treatment groups as below:
# On day-0 animals were randomized based on body weight and from the same day onwards animals were administered with 2.5% DSS in RO water along with the test compounds till day-6. The test compounds were formulated in Tween 80 and 0.5% Na. CMC in (0.5:99.50%) ratio and oral administration was done twice a day for six days. During the duration of the experiment, a disease activity index (DAI) score was assessed to evaluate the clinical progression of ulcerative colitis.
# The DAI was calculated by grading on a scale of 0-5 using the following parameters: loss of body weight (0=normal; 1=0-5%; 2=6-10%; 3=11-15%; 4=16-20%, 5=>20%), stool consistency (0=normal; 1=soft stools; 2=loose stools; 3=watery diarrhea) and rectal bleeding (0=none; 2=presence of hemoccult; 4=severe bleeding). (Ref: Cytokine 2014, 66, 30-39).
# as §5, §6
# [3] = system: DSS induced ulcerative colitis in C57 mice; experiment: ADD ON effect of FDC with Mesalamine in DSS induced ulcerative colitis in C57 mice (Example 10)
# Protocol: as §1, with “To study the ADD ON effect of FDC (combination” for “In this study, we have used human equivalent mice dose”, “Apremilast equivalent to 15 mg” for “Apremilast”, “Rifaximin equivalent to 500 mg of human dose) with mesalamine equivalent to 800 mg of human” for “very ( 1/18th-fold) low”, “dose” for “dose of Rifaximin”
# as §2, §3
# as §4, with “twice” for “once”
# On the day of termination (Day-6), DAI score was assessed followed by nonfasted blood collection. Then animals were sacrificed, colon length was measured and then collected in 10% formalin for histological analysis or snap frozen in liquid nitrogen for other assays.
# With the help of MS Excel, percent change vs disease control (DSS vehicle control) in various parameters were calculated and statistical analysis was performed using graph pad prism software. Percentage improvement of colon length was calculated by calculating the decrease in colon length due to disease from water vehicle control group and then improvement in colon length against DSS vehicle control group by considering the colon length of water vehicle control group as 100%.
# [4] = Day-6, Mesalamine 164.4 mg/kg p.o. BID, FDC = Rifaximin 102.8 mg/kg + Apremilast 3.1 mg/kg p.o. BID
compound,measurement,setting,value
CO[C@H]1/C=C/O[C@@]2(C)Oc3c(C)c(O)c4c(O)c(c5c(nc6cc(C)ccn65)c4c3C2=O)NC(=O)/C(C)=C\C=C\[C@H](C)[C@H](O)[C@@H](C)[C@@H](O)[C@@H](C)[C@H](OC(C)=O)[C@@H]1C [Rifaximin],% change in DAI vs DSS vehicle control,[1],−3.3 ± 11.8%
same,% change in bleeding score vs DSS vehicle control,[1],−39.3 ± 16.9%
same,"The rectal bleeding score, Day-6",[1],1.7 ± 0.5
same,"The disease activity index (DAI) score, Day-6",[1],5.9 ± 0.7
same,improvement in disease activity index (DAI) score,[1],didn't show any improvement
same,% change in DAI vs DSS vehicle control,[2],−17.9 ± 11.2%
same,% change in bleeding score vs DSS vehicle control,[2],−16.7 ± 21.5%
same,"The rectal bleeding score, Day-6",[2],2.0 ± 0.5
same,"The disease activity index (DAI) score, Day-6",[2],6.4 ± 0.9
same,improvement in disease activity index (DAI) score,[2],18%
same,improvement in rectal bleeding,[2],17%
"CCOc1cc(C(CS(C)(=O)=O)N2C(=O)c3cccc(NC(C)=O)c3C2=O)ccc1OC (single isomer, unassigned; (+)) [Apremilast, (+)-2-[1-(3-ethoxy-4-methoxyphenyl)-2-methylsulfonylethyl]-4-acetylaminoisoindoline-1,3-dione]",% change in DAI vs DSS vehicle control,[1],−32.8 ± 16.7%
same,% change in bleeding score vs DSS vehicle control,[1],−57.1 ± 21.8%
same,"The rectal bleeding score, Day-6",[1],1.2 ± 0.6
same,"The disease activity index (DAI) score, Day-6",[1],4.1 ± 1.0
same,improvement in disease activity index (DAI) score,[1],32.8%
same,% change in DAI vs DSS vehicle control,[2],−11.5 ± 9.5%
same,% change in bleeding score vs DSS vehicle control,[2],−16.7 ± 17.6%
same,"The rectal bleeding score, Day-6",[2],2.0 ± 0.4
same,"The disease activity index (DAI) score, Day-6",[2],6.9 ± 0.7
same,improvement in disease activity index (DAI) score,[2],12%
same,improvement in rectal bleeding,[2],17%
Nc1ccc(O)c(C(=O)O)c1 [Mesalamine],% change in DAI vs DSS vehicle control,[3]; [4],−40.2 ± 5.0%
same,% improvement in colon length vs DSS vehicle control,[3]; [4],39.3 ± 11.0%
same,"The Colon length, Day-6",[3]; [4],6.3 ± 0.2 cm
same,"The disease activity index (DAI) score, Day-6","[3]; Day-6, Mesalamine 164.4 mg/kg p.o. BID, FDC = Rifaximin 102.8 mg/kg + Apremilast 3.1 mg/kg p.o. BID, six days",3.1 ± 0.3
same,improvement in disease activity index (DAI) score,"[3]; Mesalamine equivalent to 800 mg, FDC = Apremilast equivalent to 15 mg and Rifaximin equivalent to 500 mg of human dose",40%
